Measurements from ChEMBL document CHEMBL5236588 (J Med Chem, 2022).
Residues, ends and D or L forms follow the SMILES beside them.

What was measured:
[1] = Inhibition of FXIIa (unknown origin) using Ac-QRFR-pNA as substrate measured at 30 sec interval by microplate reader assay; design: species or system Homo sapiens
[2] = species: Homo sapiens; experiment: Potency index, ratio of M8 Ki to test compound Ki for inhibition of FXIIa (unknown origin)

Ki [1]	Ratio Ki [2]	Compound
156 nM	1.2	CC[C@H](C)[C@@H]1NC(=O)[C@H](CCCNC(=N)N)NC(=O)[C@H](Cc2ccccc2)NC(=O)[C@@H]2CSSC[C@H]3NC(=O)[C@H](C)NC(=O)CNC(=O)[C@@H]4CCCN4C(=O)[C@@H]4CSSC[C@H](NC(=O)[C@H](Cc5ccc(O)cc5)NC(=O)CNC(=O)[C@H](CC(N)=O)NC(=O)CNC(=O)[C@H](CCCNC(=N)N)NC(=O)[C@H](CSSC[C@H](NC(=O)[C@H](CCCCN)NC(=O)[C@H](CCCCN)NC(=O)[C@H](CC(C)C)NC1=O)C(=O)N[C@@H](CCCNC(=N)N)C(=O)N[C@@H](CCCNC(=N)N)C(=O)N[C@@H](CC(=O)O)C(=O)N[C@@H](CO)C(=O)N[C@@H](CC(=O)O)C(=O)N4)NC(=O)[C@H]([C@@H](C)CC)NC3=O)C(=O)NCC(=O)N[C@@H](CO)C(=O)NCC(=O)N[C@@H](CCC(N)=O)C(=O)N2
157 nM		CC[C@H](C)[C@@H]1NC(=O)[C@@H]2CSSC[C@H](NC(=O)[C@H](CCC(N)=O)NC(=O)CNC(=O)CN)C(=O)N[C@@H](Cc3ccccc3)C(=O)N[C@@H](CCCNC(=N)N)C(=O)N[C@@H]([C@@H](C)CC)C(=O)N[C@@H](CC(C)C)C(=O)N[C@@H](CCCCN)C(=O)N[C@@H](CCCCN)C(=O)N[C@@H]3CSSC[C@H](NC1=O)C(=O)N[C@@H](CCCNC(=N)N)C(=O)NCC(=O)N[C@@H](CC(N)=O)C(=O)NCC(=O)N[C@@H](Cc1ccc(O)cc1)C(=O)N[C@H](C(=O)NCC(=O)N[C@@H](C)C(=O)O)CSSC[C@H](NC(=O)[C@H](CC(=O)O)NC(=O)[C@H](CO)NC(=O)[C@H](CC(=O)O)NC(=O)[C@H](CCCNC(=N)N)NC(=O)[C@H](CCCNC(=N)N)NC3=O)C(=O)N1CCC[C@H]1C(=O)NCC(=O)N[C@@H](C)C(=O)N2
92 nM	2.1	CC[C@H](C)[C@@H]1NC(=O)[C@@H]2CSSC[C@@H]3NC(=O)[C@H](CCC(N)=O)NC(=O)CNC(=O)CNC(=O)[C@H](CC(=O)O)NC(=O)[C@H](CO)NC(=O)CNC(=O)[C@@H]4CSSC[C@H](NC(=O)[C@H](CC(=O)O)NC(=O)[C@H](CO)NC(=O)[C@H](CC(=O)O)NC(=O)[C@H](CCCNC(=N)N)NC(=O)[C@H](CCCNC(=N)N)NC(=O)[C@H](CSSC[C@H](NC1=O)C(=O)N[C@@H](CCCNC(=N)N)C(=O)NCC(=O)N[C@@H](CC(N)=O)C(=O)NCC(=O)N[C@@H](Cc1ccc(O)cc1)C(=O)N4)NC(=O)[C@H](CCCCN)NC(=O)[C@H](CCCCN)NC(=O)[C@H](CC(C)C)NC(=O)[C@H]([C@@H](C)CC)NC(=O)[C@H](CCCNC(=N)N)NC(=O)[C@H](Cc1ccccc1)NC3=O)C(=O)N1CCC[C@H]1C(=O)NCC(=O)N[C@@H](C)C(=O)N2 (HELM PEPTIDE1{A.C.I.C.R.G.N.G.Y.C.G.S.D.G.G.Q.C.F.R.I.L.K.K.C.R.R.D.S.D.C.P.G}$PEPTIDE1,PEPTIDE1,2:R3-17:R3|PEPTIDE1,PEPTIDE1,4:R3-24:R3|PEPTIDE1,PEPTIDE1,10:R3-30:R3|PEPTIDE1,PEPTIDE1,1:R1-32:R2$$$V2.0)
76 nM	2.6	CC[C@H](C)[C@@H]1NC(=O)[C@@H]2CSSC[C@@H]3NC(=O)[C@H](CCC(N)=O)NC(=O)CNC(=O)CNC(=O)CNC(=O)[C@H](CO)NC(=O)CNC(=O)[C@@H]4CSSC[C@H](NC(=O)[C@H](CC(=O)O)NC(=O)[C@H](CO)NC(=O)[C@H](CC(=O)O)NC(=O)[C@H](CCCNC(=N)N)NC(=O)[C@H](CCCNC(=N)N)NC(=O)[C@H](CSSC[C@H](NC1=O)C(=O)N[C@@H](CCCNC(=N)N)C(=O)NCC(=O)N[C@@H](CC(N)=O)C(=O)NCC(=O)N[C@@H](Cc1ccc(O)cc1)C(=O)N4)NC(=O)[C@H](CCCCN)NC(=O)[C@H](CCCCN)NC(=O)[C@H](CC(C)C)NC(=O)[C@H]([C@@H](C)CC)NC(=O)[C@H](CCCNC(=N)N)NC(=O)[C@H](Cc1ccccc1)NC3=O)C(=O)N1CCC[C@H]1C(=O)NCC(=O)N[C@@H](C)C(=O)N2 (HELM PEPTIDE1{A.C.I.C.R.G.N.G.Y.C.G.S.G.G.G.Q.C.F.R.I.L.K.K.C.R.R.D.S.D.C.P.G}$PEPTIDE1,PEPTIDE1,2:R3-17:R3|PEPTIDE1,PEPTIDE1,4:R3-24:R3|PEPTIDE1,PEPTIDE1,10:R3-30:R3|PEPTIDE1,PEPTIDE1,1:R1-32:R2$$$V2.0)
140 nM	1.4	CC[C@H](C)[C@@H]1NC(=O)[C@@H]2CSSC[C@@H]3NC(=O)[C@H](CCC(N)=O)NC(=O)CNC(=O)CNC(=O)[C@H](CO)NC(=O)CNC(=O)[C@H](CO)NC(=O)CNC(=O)[C@@H]4CSSC[C@H](NC(=O)[C@H](CC(=O)O)NC(=O)[C@H](CO)NC(=O)[C@H](CC(=O)O)NC(=O)[C@H](CCCNC(=N)N)NC(=O)[C@H](CCCNC(=N)N)NC(=O)[C@H](CSSC[C@H](NC1=O)C(=O)N[C@@H](CCCNC(=N)N)C(=O)NCC(=O)N[C@@H](CC(N)=O)C(=O)NCC(=O)N[C@@H](Cc1ccc(O)cc1)C(=O)N4)NC(=O)[C@H](CCCCN)NC(=O)[C@H](CCCCN)NC(=O)[C@H](CC(C)C)NC(=O)[C@H]([C@@H](C)CC)NC(=O)[C@H](CCCNC(=N)N)NC(=O)[C@H](Cc1ccccc1)NC3=O)C(=O)N1CCC[C@H]1C(=O)NCC(=O)N[C@@H](C)C(=O)N2 (HELM PEPTIDE1{A.C.I.C.R.G.N.G.Y.C.G.S.G.S.G.G.Q.C.F.R.I.L.K.K.C.R.R.D.S.D.C.P.G}$PEPTIDE1,PEPTIDE1,2:R3-18:R3|PEPTIDE1,PEPTIDE1,4:R3-25:R3|PEPTIDE1,PEPTIDE1,10:R3-31:R3|PEPTIDE1,PEPTIDE1,1:R1-33:R2$$$V2.0)
131 nM	1.5	CC[C@H](C)[C@@H]1NC(=O)[C@@H]2CSSC[C@@H]3NC(=O)[C@H](CCC(N)=O)NC(=O)CNC(=O)CNC(=O)[C@H](CO)NC(=O)[C@H](CO)NC(=O)CNC(=O)[C@@H]4CSSC[C@H](NC(=O)[C@H](CC(=O)O)NC(=O)[C@H](CO)NC(=O)[C@H](CC(=O)O)NC(=O)[C@H](CCCNC(=N)N)NC(=O)[C@H](CCCNC(=N)N)NC(=O)[C@H](CSSC[C@H](NC1=O)C(=O)N[C@@H](CCCNC(=N)N)C(=O)NCC(=O)N[C@@H](CC(N)=O)C(=O)NCC(=O)N[C@@H](Cc1ccc(O)cc1)C(=O)N4)NC(=O)[C@H](CCCCN)NC(=O)[C@H](CCCCN)NC(=O)[C@H](CC(C)C)NC(=O)[C@H]([C@@H](C)CC)NC(=O)[C@H](CCCNC(=N)N)NC(=O)[C@H](Cc1ccccc1)NC3=O)C(=O)N1CCC[C@H]1C(=O)NCC(=O)N[C@@H](C)C(=O)N2 (HELM PEPTIDE1{A.C.I.C.R.G.N.G.Y.C.G.S.S.G.G.Q.C.F.R.I.L.K.K.C.R.R.D.S.D.C.P.G}$PEPTIDE1,PEPTIDE1,2:R3-17:R3|PEPTIDE1,PEPTIDE1,4:R3-24:R3|PEPTIDE1,PEPTIDE1,10:R3-30:R3|PEPTIDE1,PEPTIDE1,1:R1-32:R2$$$V2.0)
106 nM	-4.2	CC[C@H](C)[C@@H]1NC(=O)[C@@H]2CSSC[C@H](NC(=O)[C@H](CCC(N)=O)NC(=O)CNC(=O)CN)C(=O)N[C@@H](Cc3ccccc3)C(=O)N[C@@H](CCCNC(=N)N)C(=O)N[C@@H]([C@@H](C)CC)C(=O)N[C@@H](CC(C)C)C(=O)N[C@@H](CCCCN)C(=O)N[C@@H](CCCCN)C(=O)N[C@H]3CSSC[C@H](NC1=O)C(=O)N[C@@H](CCCNC(=N)N)C(=O)NCC(=O)N[C@@H](CC(N)=O)C(=O)NCC(=O)N[C@@H](Cc1ccc(O)cc1)C(=O)N[C@H](C(=O)N[C@@H](C)C(=O)N[C@@H](CO)C(=O)O)CSSC[C@H](NC(=O)[C@H](CC(=O)O)NC(=O)[C@H](CO)NC(=O)[C@H](CC(=O)O)NC(=O)[C@H](CCCNC(=N)N)NC(=O)[C@H](CCCNC(=N)N)NC3=O)C(=O)N1CCC[C@H]1C(=O)NCC(=O)N[C@@H](C)C(=O)N2 (HELM PEPTIDE1{G.G.Q.C.F.R.I.L.K.K.C.R.R.D.S.D.C.P.G.A.C.I.C.R.G.N.G.Y.C.A.S}$PEPTIDE1,PEPTIDE1,4:R3-21:R3|PEPTIDE1,PEPTIDE1,11:R3-23:R3|PEPTIDE1,PEPTIDE1,17:R3-29:R3$$$V2.0)
